Measurements: PMC10745422, “Absorption, Distribution, Metabolism, and Excretion of [^14C]BS1801, a Selenium-Containing Drug Candidate, in Rats” (Molecules, 2023)

What was measured:
[1] = test system: albumin; set-up: method as in PMID 17363345, PMID 7945407; details: cited from earlier work
[2] = test system: human serum albumin; set-up: method as in PMID 35149420; details: covalent binding, unstable; cited from earlier work
[3] = Biliary excretion of radioactivity in bile duct cannulated (BDC) rats; assay type: in vivo, Sprague–Dawley (SD, Rattus norvegicus) rats; details: BDC SD rats, single intragastric 100 mg/kg, within 72 h
Protocol: (§1) BS1801 and [^14C]BS1801 were prepared in 0.5% sodium carboxymethyl cellulose solution at a target concentration of 10 mg/mL (10 μCi/mL). The radioactivity of [^14C]BS1801 was measured using a liquid scintillation counter (LSC) (Hidex, Turku, Finland) before and after administration, and a single dose of 10 mL/kg was administered orally.
Bile duct cannulation (BDC) was performed in 3 male and 3 female SD rats before drug administration. After the operation, the wounds were wiped with iodophor for 2 days, and painkillers were administered appropriately. The state of the rats was observed daily, and the drug was administered only when no abnormality was observed within 2 days. Bile was collected before and 0–4, 4–8, 8–24, 24–48, and 48–72 h after dosing. The weights of the bile samples were recorded, and the samples were stored at −20 °C until testing.
(§2) Samples of urine (100 μL), bile (30 μL), and plasma (100 μL from the tissue distribution study) were weighed and added to 15 mL scintillation solution. Among them, urine and bile samples were duplicated, and plasma samples were in singlicate. The radioactivity was measured directly via LSC.

[4] = Metabolite radio-profiling and identification in pooled plasma, urine, feces and bile (UHPLC-β-RAM/UV/QE MS); assay type: in vivo, Sprague–Dawley (SD, Rattus norvegicus) rats
Protocol: Three SD rats of each sex were used to obtain plasma samples. […] All samples were stored at −20 °C for analysis.
Then, 3 mL of methanol/water (50:50, v:v) was slowly added to the pooled plasma (1 mL), followed by vortexing for 1 min and sonication for 10 min twice. Then, the upper extract and the lower precipitate were separated by centrifugation (5000 rpm, 10 min). The supernatant was transferred to another new centrifuge tube. Then, 1 mL of water was added to the precipitate, vortexed for 1 min, and sonicated for 10 min. Then, 2 mL of methanol/acetonitrile (50:50, v:v) was added to the mixture, two vortexes were performed for 1 min, and the mixture was ultrasonicated for 10 min, followed by centrifugation (5000 rpm, 10 min). The two-times supernatant extracts were combined and dried under a nitrogen stream and finally redissolved with acetonitrile/water (20:80, v:v). The recoveries of extraction and reconstitution processes were measured via LSC.
The pooled urine was vortexed and centrifuged (5000 rpm, 10 min). After centrifugation, the supernatant was dried under a nitrogen stream and then redissolved in acetonitrile/water (20:80, v:v).
The pooled fecal homogenate (1 g) was extracted by using the same method as for the plasma. The supernatant was then evaporated under a nitrogen stream and redissolved in 300 μL acetonitrile/water (20:80, v:v).
An ACQUITY UPLC BEH Pheny column (100 × 2.1 mm, 1.7 μm) with a Phenomenex KrudKatcher Ultra HPLC In-Line Filter guard column (2 µm, Depth Filter × 0.004 in ID) was used to perform metabolite radio-profiling and characterization on the Vanquish UHPLC system, which was combined with a QExactive Plus mass spectrometer (Thermo, Waltham, MA, USA) containing an electrospray ionization (ESI) source. The column temperature was 40 °C, and the flow rate was 0.45 mL/min. The mobile phases contained 5 mM ammonium acetate with 0.1% formic acid in water (A) and acetonitrile (B). […] The mass spectrometer was operated in positive (+ESI) mode with a m/z 100–1500 Da scanning range. The optimized MS parameters were as follows: sheath gas, 35 L/min; auxiliary gas, 10 L/min; capillary temperature, 320 °C; and spray voltage, 3.8 kV. Data acquisition was performed using Xcalibur 4.1 software (Thermo, Waltham, MA, USA), and data analysis was accomplished using Compound Discoverer software 3.3 SP2 (Thermo, Waltham, MA, USA).
The extracted plasma, urine, feces, and bile samples were separated via UHPLC and detected using an online/offline radioactivity detector to obtain the corresponding radioactive metabolite profiles. Due to low radioactivity of plasma, the UHPLC eluent was collected using a UHPLC fraction collector (Thermo, Waltham, MA, USA) over time (10 s/well) on Deepwell LumaPlateTM 96-well plates. After evaporation via a vacuum centrifuge concentrator, the radioactivity was determined with an offline Sense Beta detector (1 min/well, Hidex, Turku, Finland). For the urine, feces, and bile samples, the UHPLC eluent was analyzed using an online radioactivity detector β-RAM. Radioactive metabolite profiling was integrated to obtain the radio-chromatogram with Laura 6.0.5.101 software (Lablogic, Sheffield, UK). The percentage of each metabolite in urine, feces, and bile (%dose) and the ratio of metabolites in the plasma (% area under the curve, %AUC) were calculated.

[5] = Tissue distribution of radioactivity after a single oral dose of [^14C]BS1801; assay type: in vivo, Long–Evans (LE, Rattus norvegicus) rats; details: total radioactivity
Protocol: as §1
Twenty-four LE rats (12 of each sex) were used for tissue distribution studies. Three male and three female rats were sacrificed through abdominal aortic bleeding at 2, 10, 48, and 96 h after administration. Approximately 1/5 of the blood was stored frozen at −20 °C, and the remaining blood was centrifuged (3500× g, 5 min, 4 °C) to obtain plasma. The brain, heart, lung, liver, stomach wall, spleen, kidney, muscle, pigmented fat, ovary, womb, testis, bladder wall, pancreas, small intestine wall, large intestine wall, eye, pigmented skin, thymus, spinal cord, and marrow were also collected. The tissues were washed with saline, dried, and stored at −20 °C until testing.
as §2
(§3) Approximately three times the weight of methanol/water (50:50, v:v) was added to each fecal sample and homogenized with a homogenizer (SKGZ, Shanghai Biheng, Shanghai, China). Approximately 0.2~0.3 g of the fecal homogenate was weighed in a combustion boat, and dried overnight. Blood samples (100 μL) and tissue samples (approximately 0.1 g) were weighed into burning boats. After the samples were completely dried, they were combusted using a Biological Sample Oxidizer (OTCS-11/1, Shanghai Yixing, Shanghai, China). The ^14CO2 generated was captured with 15 mL alkaline scintillation solution; then, the radioactivity was measured using LSC.

[6] = Mass balance: excretion of radioactivity in urine and feces after a single oral dose of [^14C]BS1801; assay type: in vivo, Sprague–Dawley (SD, Rattus norvegicus) rats
Protocol: as §1
Three male and three female SD rats were housed individually in metabolic cages. Urine samples were collected from each rat at predose and 0–8, 8–24, 24–48, 48–72, 72–96, 96–120, 120–144, and 144–168 h postdose. When each urine sample was collected, the metabolic cage was flushed with a small amount of water for 0–72 h and methanol/water (50:50, v:v) for 72–168 h, and the flushing solution was added to the urine sample for the corresponding period. Fecal samples were also collected at predose and 0–24, 24–48, 48–72, 72–96, 96–120, 120–144, and 144–168 h postdose. Urine and fecal samples were weighed and recorded during each collection period. All samples were stored at −20 °C for testing.
as §2, §3

[7] = 0–96 h pooled female SD rat urine
[8] = AUC0–72h pooled female SD rat plasma
[9] = AUC0–72h pooled male SD rat plasma
[10] = SD rats, single oral 100 mg/kg, 0 to 168 h

O=c1c2ccccc2[se]n1CCn1[se]c2ccccc2c1=O [BBSKE, 1,2-[bis(1,2-benzisoselenazolone-3 (2H)-ketone)]-ethane]
binding rates with albumin [1]: high

O=c1c2ccccc2[se]n1CCCCn1[se]c2ccccc2c1=O [BS1801]
binding to human serum albumin [2]: rapidly and thoroughly
recovery of radioactivity in bile [3]: 0.58%
amount in urine [4, 7]: not detected
amount in urine ([4]; 0–96 h pooled male SD rat urine): not detected
share of total plasma radioactivity [4, 8]: undetected
share of total plasma radioactivity [4, 9]: not detected
detection of parent drug in bile ([4]; SD rat bile): not detected
unchanged drug in rat feces ([4]; SD rat feces, male and female): more than 75.00 % of the dose
recovery of radioactivity in the supernatant after protein precipitation of pooled plasma ([4]; female SD rats): 91.23%
recovery of radioactivity in the supernatant after protein precipitation of pooled plasma ([4]; male SD rats): 105.85%
amount in feces ([4]; pooled female SD rat feces (0–48 h)): 81.89 % of the dose
amount in feces ([4]; pooled male SD rat feces (0–48 h)): 76.97 % of the dose
ratio of AUC0–96h of brain to that of plasma, rank among analyzed tissues ([5]; brain, LE rats): the lowest
ratio of tissue AUC0–96h to plasma AUC0–96h ([5]; eyes, male LE rats): 5.35
average ratio of blood AUC0–96h to plasma AUC0–96h ([5]; female LE rats): 0.45
ratio of tissue AUC0–96h to plasma AUC0–96h ([5]; large intestine, female LE rats): 16.82
ratio of tissue AUC0–96h to plasma AUC0–96h ([5]; large intestine, male LE rats): 7.48
ratio of tissue AUC0–96h to plasma AUC0–96h ([5]; liver, female LE rats): 6.59
ratio of tissue AUC0–96h to plasma AUC0–96h ([5]; liver, male LE rats): 11.80
average ratio of blood AUC0–96h to plasma AUC0–96h ([5]; male LE rats): 0.73
ratios of other tissues AUC0–96h to plasma AUC0–96h ([5]; other tissues, all rats): lower than 5.00
ratio of tissue AUC0–96h to plasma AUC0–96h ([5]; stomach, male LE rats): 10.60
absorption in rats (inferred from urine and bile recovery) ([6]; SD rats, single oral 100 mg/kg): not well absorbed
radioactive recovery in either urine or bile ([6]; SD rats, single oral 100 mg/kg): less than 1 % of the dose
mean radioactive recovery in urine and feces ([6]; SD rats, single oral 100 mg/kg (100 μCi/kg), 0 to 168 h): 93.39%
cumulative excretion of radioactive substances in feces [6, 10]: 92.77 % of the dose
cumulative excretion of radioactive substances in urine [6, 10]: 0.62 % of the dose
mean radioactive recovery in urine and feces ([6]; SD rats, single oral 100 mg/kg, within 0–48 h): 91.57%
cumulative excretion of radioactive substances in feces ([6]; female SD rats): 93.22 % of the dose
cumulative excretion of radioactive substances in feces ([6]; male SD rats): 92.32 % of the dose

C[Se]c1ccccc1C(=O)NCCCCNC(=O)c1ccccc1[Se]C [M2]
share of total plasma radioactivity [4, 8]: 81.33 % of the total plasma radioactivity
share of total plasma radioactivity [4, 9]: 65.41 % of the total radioactivity

C[Se]c1ccccc1C(=O)NCCCCN [M286]
amount in urine [4, 7]: 0.20 % of the dose
amount in bile ([4]; pooled 0–48 h male SD rat bile): less than 0.1 % of the dose

O=c1c2ccccc2[se]n1-c1ccccc1 [ebselen, 2-phenyl-1,2-benzisoselenazol-3(2H)-one]
binding rates with albumin [1]: high
